The subject of data set [1] is MEF. Put plainly: Upregulation of c-Myc gene expression in C57BL/6 MEF at 100 nM after 24 hrs by quantitative RT-PCR analysis relative to control. It counts as functional, Mus musculus. The conditions noted are these: for Activity: Mus musculus.
For data set [2], the system named is MEF. Put plainly: Cytotoxicity against C57BL/6 MEF at 100 nM by WST-8 assay. It counts as cell-based. Conditions: mouse, 0.1 µM. For orientation: Tetrazolium dyes change colour on reduction, which living cells bring about.
In data set [3] the test system is MEF. The data set is described as follows: Induction of Oct3/4 gene expression in C57BL/6 MEF at 100 nM after 24 hrs by quantitative RT-PCR analysis relative to control. In kind it is functional, Mus musculus. Conditions: for Activity: Mus musculus.
The nature of data set [4]: Inhibition of HDAC.
Data set [5] relates to MEF. Put plainly: Upregulation of Sox2 gene expression in C57BL/6 MEF at 100 nM after 24 hrs by quantitative RT-PCR analysis relative to control. In kind it is functional, cell-based. The conditions noted are these: Mus musculus.
In data set [6] the test system is MEF. Put plainly: Upregulation of Klf4 gene expression in C57BL/6 MEF at 100 nM after 24 hrs by quantitative RT-PCR analysis relative to control. In kind it is functional, Mus musculus. The conditions noted are these: for Activity: Mus musculus.
The test system of data set [7] is MEF. Put plainly: Upregulation of Nanog gene expression in C57BL/6 MEF at 100 nM after 24 hrs by quantitative RT-PCR analysis relative to control. In kind it is functional. The conditions noted are these: for Activity: Mus musculus.

Activity calls are given as the source filed them. The rule behind the calls is not given here.

Take `CN(C)CCCNC(=O)c1cc(NC(=O)c2cc(NC(=O)c3cc(NC(=O)c4cc(NC(=O)CCCNC(=O)c5cc(NC(=O)c6cc(NC(=O)c7cc(NC(=O)c8nc(NC(=O)CCNC(=O)CCNC(=O)CCNC(=O)c9ccc(NC(=O)CCCCCCC(=O)NO)cc9)cn8C)cn7C)cn6C)cn5C)cn4C)cn3C)cn2C)cn1C`: the “fold change (FC)” value in the data set on MEF [1] amounted to 1.5; in the data set on MEF [3], 4.5; with MEF [6], 1.5. The Activity entry in the data set on MEF [2] was “Non-toxic”. Further, the HDAC inhibition activity entry in data set [4] is “Active”. Moreover, the outcome in the data set with MEF [5] and in the data set with MEF [7] was Active.
As to `CN(C)CCCNC(=O)c1cc(NC(=O)c2cc(NC(=O)c3cc(NC(=O)c4cc(NC(=O)CCCNC(=O)c5cc(NC(=O)c6cc(NC(=O)c7cc(NC(=O)c8nc(NC(=O)CCNC(=O)CCNC(=O)c9ccc(NC(=O)CCCCCCC(=O)NO)cc9)cn8C)cn7C)cn6C)cn5C)cn4C)cn3C)cn2C)cn1C`, the outcome in the data set on MEF [1] and in the data set on MEF [6] was inactive. Further, the Activity result with MEF [2] is recorded as “Non-toxic”. Moreover, the “fold change (FC)” value is 3.1 in the data set with MEF [3] and 2 in the data set with MEF [7]. Further, the HDAC inhibition activity entry in data set [4] was “Active”. Besides, in the data set with MEF [5], the result was Active.
Turning to `O=C(CCCCCCC(=O)Nc1ccccc1)NO`, the outcome in the data set with MEF [3] and in the data set on MEF [7] was inactive. Further, in the data set on MEF [5], the result was Active.
As for `CN(C)CCCNC(=O)CCNC(=O)c1cc(NC(=O)c2cc(NC(=O)c3cc(NC(=O)c4cc(NC(=O)CCCNC(=O)c5cc(NC(=O)c6cc(NC(=O)c7cc(NC(=O)c8nc(NC(=O)CCNC(=O)CCNC(=O)c9ccc(NC(=O)CCCCCCC(=O)NO)cc9)cn8C)cn7C)cn6C)cn5C)cn4C)cn3C)cn2C)cn1C`, the “fold change (FC)” value in the data set on MEF [1] was 1.8; in the data set on MEF [3] it was 2; in the data set with MEF [7] it was 2. In addition, the Activity entry in the data set on MEF [2] is “Non-toxic”. Also, in data set [4], the HDAC inhibition activity entry is “Active”. The result with MEF [5] and with MEF [6] was Active.
As to `CONC(=O)CCCCCCC(=O)Nc1ccc(C(=O)NCCC(=O)NCCC(=O)Nc2cn(C)c(C(=O)Nc3cc(C(=O)Nc4cc(C(=O)Nc5cc(C(=O)NCCCC(=O)Nc6cc(C(=O)Nc7cc(C(=O)Nc8cc(C(=O)Nc9cc(C(=O)NCCCN(C)C)n(C)c9)n(C)c8)n(C)c7)n(C)c6)n(C)c5)n(C)c4)n(C)c3)n2)cc1`, the result in the data set on MEF [3] and in the data set with MEF [7] was inactive. In the data set with MEF [5], the outcome was Active.
For `CC(=O)Nc1cn(C)c(C(=O)Nc2cc(C(=O)Nc3cc(C(=O)Nc4cc(C(=O)NCCCC(=O)Nc5cc(C(=O)Nc6cc(C(=O)Nc7cc(C(=O)Nc8cc(C(=O)NCCCN(C)CCCNC(=O)c9ccc(NC(=O)CCCCCCC(=O)NO)cc9)n(C)c8)n(C)c7)n(C)c6)n(C)c5)n(C)c4)n(C)c3)n(C)c2)n1`, the “fold change (FC)” value with MEF [1] amounted to 1.5; with MEF [3], 2; in the data set on MEF [6], 2.2; in the data set with MEF [7], 2. The Activity entry with MEF [2] is “Non-toxic”. For the same compound, the HDAC inhibition activity entry in data set [4] was “Active”. Also, in the data set on MEF [5], the outcome was Active.
As for `CN(C)CCCNC(=O)c1cc(NC(=O)c2cc(NC(=O)c3cc(NC(=O)c4cc(NC(=O)CCCNC(=O)c5cc(NC(=O)c6cc(NC(=O)c7cc(NC(=O)c8nc(NC(=O)CCNC(=O)CCNC(=O)CCNC(=O)CCNC(=O)c9ccc(NC(=O)CCCCCCC(=O)NO)cc9)cn8C)cn7C)cn6C)cn5C)cn4C)cn3C)cn2C)cn1C`, the “fold change (FC)” value in the data set with MEF [1] is 1.5; in the data set with MEF [3] it was 3.6; with MEF [6], 1.5; in the data set on MEF [7], 2. Moreover, the Activity result in the data set with MEF [2] is recorded as “Non-toxic”. Further, the HDAC inhibition activity entry in data set [4] was “Active”. In the data set on MEF [5], the outcome was Active.
Turning to `CN(C)CCCNC(=O)c1cc(NC(=O)c2cc(NC(=O)c3cc(NC(=O)c4cc(NC(=O)CCCNC(=O)c5cc(NC(=O)c6cc(NC(=O)c7cc(NC(=O)c8nc(NC(=O)CCNC(=O)c9ccc(NC(=O)CCCCCCC(=O)NO)cc9)cn8C)cn7C)cn6C)cn5C)cn4C)cn3C)cn2C)cn1C`, the outcome with MEF [1] was inactive. Further, in the data set on MEF [2], the Activity result is “Non-toxic”. For the same compound, the “fold change (FC)” value in the data set on MEF [3] came to 2; in the data set on MEF [6] it was 1.5; with MEF [7], 2. Also, the HDAC inhibition activity result in data set [4] was “Active”. The result with MEF [5] was Active.

Values taken from ChEMBL document CHEMBL2157985, “Development of programmable small DNA-binding molecules with epigenetic activity for induction of core pluripotency genes” (Bioorg Med Chem, 2012).
